{"source": "paper PMC6930555", "about": "“Design, Synthesis, and Structural Characterization of Novel Diazaphenothiazines with 1,2,3-Triazole Substituents as Promising Antiproliferative Agents” (Molecules, 2019)", "key": {"[1]": {"system": "colorectal carcinoma Caco-2", "test": "WST-1 cell proliferation assay, Caco-2", "assay_type": "cell-based", "settings": "Homo sapiens; Caco-2, WST-1, 72 h; read-out: Anticancer Activity IC50 Caco-2", "method": "(§1) The antiproliferative activity of all 20 new 10-substituted 1,2,3-triazole derivatives of dipyridothiazines was tested in vitro against cancer cell lines: glioblastoma SNB-19, colorectal carcinoma Caco-2, lung cancer A549, and breast cancer MDA-MB231 using the WST-1 assay. Normal human fibroblasts NHDF were used as a control.\n(§2) All dipyridothiazines with 1,2,3-triazole substituents (1–4)b–f were evaluated for their anticancer activity using four cultured cell lines: SNB-19 (human glioblastoma, DSMZ—German Collection of Microorganisms and Cell Cultures, Braunschweig, Germany), Caco-2 (human colon adenocarcinoma, DSMZ—German Collection of Microorganisms and Cell Cultures, Braunschweig, Germany), A549 (human lung carcinoma, ATCC, Manassas, VA, USA) and MDA-MB231 (human breast adenocarcinoma, ATCC, Manassas, VA, USA), and NHDF (human dermal fibroblast cell line, ATCC, Manassas, VA, USA. The cultured cells were kept at 37 °C and 5% CO2. The cells were seeded (1 × 10^4 cells/well/100 µL DMEM supplemented with 10% FCS and streptomycin and penicillin) using 96-well plates (Corning). The cells were counted in a hemocytometer (Burker’s chamber) using a phase contrast Olympus IX50 microscope equipped with Sony SSC-DC58 AP camera and Olympus DP10 digital camera.\n(§3) Antiproliferative effect of the obtained compounds on the cancer cells was determined using the cell proliferation reagent WST-1 assay (Roche Diagnostics, Mannheim, Germany). This assay is based on the viable cell’s ability to cleave the bright red-colored tetrazolium salt (2-(4-iodophenyl)-3-(4-nitrophenyl)-5-(2,4-disulfophenyl)-2H-tetrazolium, monosodium salt) to dark red soluble formazan by cellular enzymes. An increase in the amount of formazan dye formed correlates to the number of metabolically active cells in the culture. The formazan dye produced by metabolically active cells is quantified by a scanning ELISA reader by measuring the absorbance of the dye solution at appropriate wavelengths. The examined cells were exposed to the tested compounds for 72 h at various concentrations between 0.1 μg/mL and 100 μg/mL (prepared initially at concentration of 1 mg/mL in DMSO). The cells were incubated with WST-1 (10 μL) for 1 h and the absorbance of the samples against a background control was measured at 450 nm using a microplate reader with a reference wavelength at 600 nm. The results are expressed as means of at least two independent experiments performed in triplicate."}, "[2]": {"system": "H3, TP53, CDKN1A, BCL-2 and BAX genes in SNB-19, Caco-2, A549 and MDA-MB231", "test": "RT-qPCR gene expression, summary over the cancer cell lines", "assay_type": "cell-based, human", "method": "(§4) In this method the gene transcriptional activities of proliferation marker (H3), cell cycle regulator (TP53 and CDKNIA), and intracellular apoptosis pathway (BCL-2 and BAX) were analyzed. It has been known that the growth, metabolism, and eventual death of the cells in the body are controlled by hundreds of genes working together. The gene encoding histone H3 plays a crucial role in regulation of the expression of the genetic information included in the DNA.\n(§5) Genes trancriptional activity (H3, TP53, CDKN1A, BCL-2, and BAX) was evaluated by real time RT-qPCR with OPTICON TM DNA Engine (MJ Research, Watertown, MA, USA) and QuantTect® SYBR® Green RT-PCR Kit (Quiagen, Valencia, CA). Cells were exposed to compound 4 at a 0.5 µg/mL concentration for 24 h. The RNA extraction was made by using Quick-RNA™ Kit MiniPrep (ZYMO […]). Total RNA integrity was analysed in 1.2% agarose electrophoresis with added ethidium bromide. The quantity and purity of extracted total RNA were determined by using spectrophotometric analysis with HP845 (Hewlett Packard, Waldbronn, Germany) spectrophotometer. The statistical analysis was performed using the Statistica 8.0 software. All values were expressed as means ± SE."}, "[3]": {"system": "normal human fibroblasts NHDF", "test": "WST-1 cytotoxicity assay, normal fibroblasts NHDF", "assay_type": "cell-based", "method": "as §1, with “Encouraged by our previous promising results in the field of antiproliferative activity of dipyridothiazines as well as by the good anticancer activity of the 1,2,3-triazoles, we decided to combine the biological potentials of dipyridothiazines and triazole moieties, hoping to obtain compounds with better activity. The” for “The”\nas §2, §3"}, "[4]": {"system": "H3, TP53, CDKN1A, BCL-2 and BAX genes in breast cancer MDA-MB231", "test": "RT-qPCR gene expression, MDA-MB231", "assay_type": "cell-based, human", "method": "as §4, §5"}, "[5]": {"system": "H3, TP53, CDKN1A, BCL-2 and BAX genes in colorectal carcinoma Caco-2", "test": "RT-qPCR gene expression, Caco-2", "assay_type": "cell-based, human", "method": "as §4, §5"}, "[6]": {"system": "H3, TP53, CDKN1A, BCL-2 and BAX genes in lung cancer A549", "test": "RT-qPCR gene expression, A549", "assay_type": "cell-based, human", "settings": "A549, 0.5 µg/mL, 24 h", "method": "as §4, §5"}, "lung cancer A549": {"system": "lung cancer A549", "test": "WST-1 cell proliferation assay, A549", "assay_type": "cell-based, human", "settings": "Homo sapiens; A549, WST-1, 72 h; read-out: Anticancer Activity IC50 A549", "method": "as §1, with “Encouraged by our previous promising results in the field of antiproliferative activity of dipyridothiazines as well as by the good anticancer activity of the 1,2,3-triazoles, we decided to combine the biological potentials of dipyridothiazines and triazole moieties, hoping to obtain compounds with better activity. The” for “The”\nas §2, §3"}, "breast cancer MDA-MB231": {"system": "breast cancer MDA-MB231", "test": "WST-1 cell proliferation assay, MDA-MB231", "assay_type": "cell-based, human", "settings": "Homo sapiens, MDA-MB-231; MDA-MB231, WST-1, 72 h; read-out: Anticancer Activity IC50 MDA-MB231", "method": "as §1, with “Encouraged by our previous promising results in the field of antiproliferative activity of dipyridothiazines as well as by the good anticancer activity of the 1,2,3-triazoles, we decided to combine the biological potentials of dipyridothiazines and triazole moieties, hoping to obtain compounds with better activity. The” for “The”\nas §2, §3"}, "[7]": {"system": "SNB-19, Caco-2, A549 and MDA-MB231 cancer cell lines", "test": "WST-1 assay, summary over the cancer cell line panel", "assay_type": "cell-based, human", "settings": "Homo sapiens; span over SNB-19, Caco-2, A549, MDA-MB231; read-out: IC50 across all investigated cancer cell lines", "method": "as §1, §2, §3"}, "[8]": {"system": "H3, TP53, CDKN1A, BCL-2 and BAX genes in glioblastoma SNB-19", "test": "RT-qPCR gene expression, SNB-19", "assay_type": "cell-based, human", "settings": "SNB-19, 0.5 µg/mL, 24 h", "method": "as §4, §5"}, "glioblastoma SNB-19": {"system": "glioblastoma SNB-19", "test": "WST-1 cell proliferation assay, SNB-19", "assay_type": "cell-based, human", "settings": "Homo sapiens; SNB-19, WST-1, 72 h; read-out: Anticancer Activity IC50 SNB-19", "method": "as §1, with “Encouraged by our previous promising results in the field of antiproliferative activity of dipyridothiazines as well as by the good anticancer activity of the 1,2,3-triazoles, we decided to combine the biological potentials of dipyridothiazines and triazole moieties, hoping to obtain compounds with better activity. The” for “The”\nas §2, §3"}}}
{"smiles": "Clc1ccc(Cn2cc(CN3c4cccnc4Sc4cccnc43)nn2)cc1", "note": "[1d, 10-[(1-(4-Chlorobenzyl)-1H-1,2,3-triazol-4-yl)methyl]-1,6-diazaphenothiazine]", "values": [{"measurement": "IC50", "setting": "[1]", "value": 0.25, "unit": "µM"}, {"measurement": "effect on expression of BCL-2 (in words)", "setting": "[2]; SNB-19, A549 and MDA-MB231", "value": "remarkably reduced"}, {"measurement": "effect on CDKN1A copies (in words)", "setting": "[2]; all cancer cells", "value": "strong decline"}, {"measurement": "effect on mRNA copy number of the histone H3 gene (in words)", "setting": "[2]; all cancer lines", "value": "strongly changed"}, {"measurement": "effect on expression of BAX (in words)", "setting": "[2]; all investigated cancer cell lines", "value": "decrease"}, {"measurement": "effect on amount of mRNA copies of TP53 (in words)", "setting": "[2]; all investigated cancer lines", "value": "significantly interfered"}, {"measurement": "cytotoxicity against normal human fibroblasts (in words)", "setting": "[3]; NHDF", "value": "relatively low cytotoxicity"}, {"measurement": "IC50", "setting": "[3]; normal human fibroblasts NHDF, WST-1, 72 h", "value": "> 100", "unit": "µM"}, {"measurement": "apoptosis pathway from gene expression ratio BCL-2/BAX (in words)", "setting": "[4]; MDA-MB231", "value": "activation of the mitochondrial apoptosis"}, {"measurement": "BAX number of mRNA copies/μg total RNA", "setting": "[4]; MDA-MB231, 0.5 µg/mL, 24 h", "value": "221+/−16 mRNA Copies/μg Total RNA"}, {"measurement": "BCL-2 number of mRNA copies/μg total RNA", "setting": "[4]; MDA-MB231, 0.5 µg/mL, 24 h", "value": "16495+/−4607 mRNA Copies/μg Total RNA"}, {"measurement": "CDKN1A number of mRNA copies/μg total RNA", "setting": "[4]; MDA-MB231, 0.5 µg/mL, 24 h", "value": "577+/−308 mRNA Copies/μg Total RNA"}, {"measurement": "H3 number of mRNA copies/μg total RNA", "setting": "[4]; MDA-MB231, 0.5 µg/mL, 24 h", "value": "8+/−6 mRNA Copies/μg Total RNA"}, {"measurement": "TP53 number of mRNA copies/μg total RNA", "setting": "[4]; MDA-MB231, 0.5 µg/mL, 24 h", "value": "46+/−20 mRNA Copies/μg Total RNA"}, {"measurement": "effect on expression of BCL-2 (in words)", "setting": "[5]; Caco-2", "value": "slight increase"}, {"measurement": "BAX number of mRNA copies/μg total RNA", "setting": "[5]; Caco-2, 0.5 µg/mL, 24 h", "value": "969+/−264 mRNA Copies/μg Total RNA"}, {"measurement": "BCL-2/BAX gene expression ratio", "setting": "[5]; Caco-2, 0.5 µg/mL, 24 h", "value": 743}, {"measurement": "BCL-2 number of mRNA copies/μg total RNA", "setting": "[5]; Caco-2, 0.5 µg/mL, 24 h", "value": "723708+/−217134 mRNA Copies/μg Total RNA"}, {"measurement": "CDKN1A number of mRNA copies/μg total RNA", "setting": "[5]; Caco-2, 0.5 µg/mL, 24 h", "value": "260+/−21 mRNA Copies/μg Total RNA"}, {"measurement": "H3 number of mRNA copies/μg total RNA", "setting": "[5]; Caco-2, 0.5 µg/mL, 24 h", "value": "45+/−3 mRNA Copies/μg Total RNA"}, {"measurement": "TP53 number of mRNA copies/μg total RNA", "setting": "[5]; Caco-2, 0.5 µg/mL, 24 h", "value": "193+/−16 mRNA Copies/μg Total RNA"}, {"measurement": "BAX number of mRNA copies/μg total RNA", "setting": "[6]", "value": "835+/−231 mRNA Copies/μg Total RNA"}, {"measurement": "BCL-2/BAX gene expression ratio", "setting": "[6]", "value": 18}, {"measurement": "BCL-2 number of mRNA copies/μg total RNA", "setting": "[6]", "value": "15631+/−2296 mRNA Copies/μg Total RNA"}, {"measurement": "CDKN1A number of mRNA copies/μg total RNA", "setting": "[6]", "value": "969+/−137 mRNA Copies/μg Total RNA"}, {"measurement": "H3 number of mRNA copies/μg total RNA", "setting": "[6]", "value": "18+/−5 mRNA Copies/μg Total RNA"}, {"measurement": "TP53 number of mRNA copies/μg total RNA", "setting": "[6]", "value": "54+/−19 mRNA Copies/μg Total RNA"}, {"measurement": "IC50", "setting": "lung cancer A549", "value": 0.25, "unit": "µM"}, {"measurement": "IC50", "setting": "breast cancer MDA-MB231", "value": 0.51, "unit": "µM"}, {"measurement": "IC50", "setting": "[7]", "value": "0.25 to 4.66", "unit": "µM"}, {"measurement": "BAX number of mRNA copies/μg total RNA", "setting": "[8]", "value": "220+/−18 mRNA Copies/μg Total RNA"}, {"measurement": "BCL-2 number of mRNA copies/μg total RNA", "setting": "[8]", "value": "17497+/−4607 mRNA Copies/μg Total RNA"}, {"measurement": "CDKN1A number of mRNA copies/μg total RNA", "setting": "[8]", "value": "308+/−51 mRNA Copies/μg Total RNA"}, {"measurement": "H3 number of mRNA copies/μg total RNA", "setting": "[8]", "value": "52+/−11 mRNA Copies/μg Total RNA"}, {"measurement": "TP53 number of mRNA copies/μg total RNA", "setting": "[8]", "value": "128+/−24 mRNA Copies/μg Total RNA"}, {"measurement": "IC50", "setting": "glioblastoma SNB-19", "value": 4.66, "unit": "µM"}]}
